# From PMC10610214 (Pharmaceuticals, 2023)
# Values joined by “and” are separate entries in the source; they are usually repeats but may differ in a detail not shown here. Equal values may be shown once. “Also recorded” adds a separate entry of the source.
# Experiments:
# AChE = biological target: T1, AChE (Electrophorus electricus, UniProt O42275); assay: Kinetic study of AChE inhibition (Lineweaver–Burk); format: biochemical
# T1 construct: AChE (from electric eel); purchased Sigma Chemical Company (St. Louis, MO, USA)
# Protocol: (§1) The specific steps are similar to those described in Section 4.3 for the enzyme inhibition assay. In brief, 100 μL of different concentrations of 4h (0, 0.075, 0.15, and 0.3 μM)/4h (0, 3, 6, and 12 μM) and 100 μL of different concentrations of AChE/BuChE (1, 0.5, 0.25, 0.125, and 0.0625 U/mL) were added into 48-well plates and then co-incubated at 37 °C for 30 min. After the end of incubation, 100 μL of ATCI/BTCI (0.35 mM), 100 μL of PB solution, and 100 μL DTNB (0.35 mM) were added, and then changes in absorbance were measured at different times at 412 nm by multifunctional microplate reader, and the catalytic reaction rate of AChE/BuChE was determined. All concentrations are final. With the enzyme reaction rate V as the ordinate and AChE/BuChE concentration as the abscissa, the curve was drawn to determine the reversibility of the compound to AChE/BuChE.
# (§2) In order to determination of inhibition types and the constant of AChE/BuChE, the concentration of AChE/BuChE (0.5 U/mL) in the reaction system was fixed. Five different substrate concentrations and four different concentrations of test compound 4h were used to measure the absorbance changes at different times at 412 nm. The reciprocal of the enzymatic reaction rate (1/V) was taken as the ordinate, and the reciprocal of the substrate ATCI/BTCI concentration (1/S) was taken as the abscissa.
# […]. […]
# BuChE = biological target: T2, BuChE (Equus caballus, UniProt P81908); assay: Kinetic study of BuChE inhibition (Lineweaver–Burk); format: biochemical
# T2 construct: BuChE (from equine serum); purchased Sigma Chemical Company (St. Louis, MO, USA); host or cells: equine serum
# Protocol: as §1, §2
# […]. […]
# PC12 cells = assay: Cytotoxicity in PC12 cells (MTT); format: cell-based
# Protocol: The cytotoxicity and neuroprotective effects of the compounds on PC12 cells were evaluated by MTT assay. PC12 cells were seeded into a 96-well plate at a density of 5.0 × 10^3 cells per well. After the cells were incubated overnight, the old medium was discarded. The cells were incubated for another 24 h with fresh medium containing compounds at a concentration of 30 or 50 μM. A total of 20 μL of MTT solution (5 mg/mL, Sigma-Aldrich, Shanghai, China) was then added per well, and the cells were incubated for an additional 4 h. Afterwards, the supernatant was removed and 150 μL of DMSO was added to solubilize formazan crystals. The 96-well plate was placed on the shaker for 10–15 min, and then the absorbance at 492 nm was measured by a microplate reader.
# NO in BV2 cells = assay: NO production in LPS-stimulated BV2 cells (Griess); format: cell-based; conditions: Mus musculus, BV-2, 24 h, read-out: NO inhibition IC50
# Protocol: The cytotoxicity of compounds on BV2 cells were evaluated by MTT assay and similar to those described in Section 2.5. The NO concentrations in medium were determined using Griess Reagent assay (Beyotime) in accordance with a previously reported method. Nitrite is reduced to nitrogen oxide using Griess Reagent I. Nitrogen oxide then reacts with Griess Reagent II forming a stable product that can be detected by its absorbance at […]. The two-step assay is simple, fast, and can detect nitrite levels as low as 1 nmol/well. BV2 cells were seeded into a 48-well plate at a density of 6.0 × 10^4 cells per well. After the cells were incubated overnight, the old medium was discarded. Then, the cells were pretreated with various concentrations (10, 5, 1, 0.5, and 0.1 μM) of compounds for 1 h and then co-incubated with LPS (1 μg/mL, 30 μL/well) for 24 h. After 24 h, the cell supernatant (50 μL/well) was placed into a new 96-well plate for experiment. […] The absorbance at […] was measured by a microplate reader.
# BV2 cells = assay: LPS-induced ROS production in BV2 cells; format: cell-based; conditions: 4h 7.5, 15, 30 μM
# Protocol: Intracellular ROS levels was detected by the ROS assay kit (Biyuntian Biotechnology, Hang Zhou, China). […] The control group involved culturing the BV2 microglia cells in normal culture media without any treatment. Then, the cells were washed with PBS (pH 7.2) and incubated with DCFH-DA at 37 °C for 20 min. Finally, cells were washed with DMEM and the fluorescence intensity was observed under confocal laser scanning microscope.
# [1] = Metal chelation by UV–Vis spectroscopy; format: physicochemical; conditions: 20 μM 4h, 1 equivalent CuCl2, methanol/water 1/1
# Protocol: In the wavelength range of 200–600 nm, the metal chelating ability of compound 4h was analyzed by UV–Vis spectroscopy. Specifically, compound 4h (dissolved in DMSO) solutions were prepared with a mixture of methanol and deionized water (1/1). Stock solutions of cation salts (10 mM) were prepared with deionized water and then in the presence or absence of ZnCl2, CuCl2, AlCl3, FeSO4, MgCl2, and CaCl2 (20 μM, final concentration), respectively, and incubated with 4h (20 μM, final concentration) for 1 h at room temperature. The final volume of the reaction mixture was 2 mL. The UV absorption of the test substance was recorded in a 1 cm quartz cell.
# [2] = Lineweaver–Burk double-reciprocal plot
# T1 sequence (O42275 24-633): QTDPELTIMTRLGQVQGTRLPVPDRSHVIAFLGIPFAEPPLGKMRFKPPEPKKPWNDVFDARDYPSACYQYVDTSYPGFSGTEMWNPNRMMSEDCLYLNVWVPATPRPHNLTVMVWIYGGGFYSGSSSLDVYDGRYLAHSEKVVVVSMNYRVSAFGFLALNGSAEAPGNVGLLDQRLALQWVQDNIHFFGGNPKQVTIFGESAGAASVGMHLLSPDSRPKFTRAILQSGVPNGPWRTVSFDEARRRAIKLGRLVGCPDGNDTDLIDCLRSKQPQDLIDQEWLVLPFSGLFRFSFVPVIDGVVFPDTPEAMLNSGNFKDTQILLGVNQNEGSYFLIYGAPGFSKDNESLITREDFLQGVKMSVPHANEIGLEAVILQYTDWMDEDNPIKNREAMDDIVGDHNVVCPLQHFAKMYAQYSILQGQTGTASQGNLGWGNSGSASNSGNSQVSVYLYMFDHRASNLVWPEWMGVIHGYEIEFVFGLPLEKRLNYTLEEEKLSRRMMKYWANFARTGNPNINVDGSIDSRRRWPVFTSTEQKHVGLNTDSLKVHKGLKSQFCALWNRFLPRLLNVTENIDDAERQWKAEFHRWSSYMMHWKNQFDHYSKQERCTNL
# T2 sequence (P81908 whole entry): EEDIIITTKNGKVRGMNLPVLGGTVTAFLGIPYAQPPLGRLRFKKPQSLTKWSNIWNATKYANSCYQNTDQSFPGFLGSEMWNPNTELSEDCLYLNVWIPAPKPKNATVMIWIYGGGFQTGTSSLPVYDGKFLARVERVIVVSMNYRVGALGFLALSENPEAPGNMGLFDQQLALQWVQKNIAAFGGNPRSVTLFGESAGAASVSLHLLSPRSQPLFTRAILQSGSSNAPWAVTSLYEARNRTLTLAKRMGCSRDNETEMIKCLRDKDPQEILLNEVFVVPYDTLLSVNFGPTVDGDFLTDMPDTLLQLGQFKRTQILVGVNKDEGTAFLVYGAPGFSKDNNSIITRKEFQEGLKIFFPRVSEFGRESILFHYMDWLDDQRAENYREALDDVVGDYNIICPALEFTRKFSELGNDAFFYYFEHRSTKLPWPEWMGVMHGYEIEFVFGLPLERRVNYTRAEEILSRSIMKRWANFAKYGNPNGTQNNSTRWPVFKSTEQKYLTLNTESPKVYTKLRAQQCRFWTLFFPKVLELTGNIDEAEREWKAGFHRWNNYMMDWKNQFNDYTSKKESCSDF
compound,measurement,setting,value
O=C1c2cc(NS(=O)(=O)c3ccccc3F)ccc2-n2c1nc1ccccc1c2=O [4h],AChE inhibition type,AChE; [2],mixed-type inhibition
same,Ki,AChE; Lineweaver–Burk secondary plot,83.1 nM
same,BuChE inhibition type,BuChE; [2],mixed-type inhibition
same,Ki,BuChE; Lineweaver–Burk secondary plot,5330 nM
same,Cell Viability (% of Control),"PC12 cells; compound 30 μM, 30 µM",99.62 ± 0.94 % of Control and 99.6 ± 0.9 % of Control
same,Cell Viability (% of Control),"PC12 cells; compound 50 μM, 50 µM",99.21 ± 1.57 % of Control and 99.2 ± 1.5 % of Control
same,IC50,NO in BV2 cells,620 ± 70 nM
same,Intracellular ROS levels in BV2 cells,BV2 cells,significantly reduced intracellular ROS levels
same,Metal chelating ability (UV–Vis),[1],maximum absorption intensity at 261 nm was markedly reduced; also recorded: can chelate Cu^2+
